The values that follow come from patent publication US5340587A, “Liposome/bronchodilator method & System” (priority 1989, dated 1994).

Where a name gives a salt, the structure may show the parent alone.

For data set [1], the system named is histamine-induced bronchoconstriction. Briefly: determination of therapeutic dose of free drug against histamine-induced bronchoconstriction. Conditions: free form, inhalation. The class given is in vivo, guinea pigs. How it is done:
The therapeutic doses of terbutaline sulfate, and salbutamol sulfate which were used in the present study were determined as follows. […] These drug doses, adjusted for the body weight of the test animal, were administered by inhalation in free form, and their effects on the histamine-induced bronchoconstriction were determined as above. MPS was also tested in the initial drug-dose study. […] The therapeutic doses per animal determined from the study were: 39 μg MPS (2× recommended dose); 15 μg terbutaline (2× recommended dose); and 1.5 μg salbutamol (1× recommended dose). The therapeutic dose of MPS is approximately 60 times less than the dose used in the experiments reported above, and in Example VI.

A short description of data set [2]: blood plasma MPS levels after inhalation (FIG. 2). Type of data set: in vivo. The following applies: inhaled or intranasal.
For data set [3] the following is noted: in vivo; cited from earlier work.
The conditions of data set [4]: in vivo. How it is done: This liposome-protective effect is illustrated in FIGS. 1A and 1B, which graph percent increases in heart rate, above a pre-drug level, in animals receiving a β2 -agonist in free (open squares), or liposomal form. The two liposomal formulations are characterized by relatively short drug-release half life (open circles, FIG. 1A), or a relatively long drug-release half life (closed circles, FIG. 1B). Heart rate was measured at 15, 45, 75, and 105 minutes after drug administration, and immediately before the animal received a bronchoconstricting dose of histamine by inhalation. […] With liposome-encapsulated drug, however, the increase in heart rate was substantially lower and more constant over the test period.

In a further data set the test system is bronchoconstriction. Conditions: free vs liposomal-entrapped MPS; cited from earlier work.
Data set [5] has as its system acetylcholine-induced bronchoconstriction. Briefly: protection against acetylcholine-induced bronchoconstriction (FIG. 4). Type of data set: in vivo, mongrel dogs. The following applies: inhalation, high dose MPS, about four hours (FIG. 4).
Text: This parameter reflects the increase in airway resistance (bronchoconstriction) immediately after administration of acetylcholine to induce bronchoconstriction. That is, the percent protection indicates the percent increase in airway resistance relative to a pre-drug level, following acetylcholine. […] It is noted that this study involved relatively high dose levels of MPS (which were needed to protect against the severe bronchoconstriction induced by the acetylcholine aerosols).
This example examines the therapeutic effect of free and liposome-encapsulated metaproteranol sulfate (elevated dosage levels) on bronchoconstriction induced by aerosols of acetylcholine (ACH).
Two mongrel dogs, a 20 kg male and a 30 kg female, were anesthetized with an initial i.v. bolus injection of sodium thiopental (10 mg/kg body weight) and sodium pentabarbital (20 mg/kg body weight) and subsequent boluses of sodium thiopental every thirty minutes, or as needed, to maintain the dog in an anesthetized state over a four hour test period. […] Air flow was monitored by a pneumotachograph connected to the endotracheal tube and the respirator and connected to a differential pressure transducer. Transpulmonary pressure was monitored by a differential pressure transducer, one port connected to a side arm of the tracheal tube and the other end connected to the esophageal balloon catheter. […]
For data set [6] the following is noted: Table 1; cited from earlier work.
For data set [7], the system named is histamine-induced bronchoconstriction. Briefly: histamine-induced bronchoconstriction: airway resistance and lung compliance (FIGS. 5, 6). The class given is in vivo, guinea pigs. Conditions: terbutaline, relative to baseline. How it is done:
The study described in Example VII illustrates the increased protection, at extended time periods, achievable with liposomal drug administration. Briefly summarizing the Example VII study, terbutaline sulfate or salbutamol sulfate, in either free or liposomal form, was administered by inhalation. At several times after drug administration, the test animal was challenged with aerosolized histamine, to induce bronchoconstriction. At the beginning of each test, prior to administration of the β2 -agonist, and immediately after each histamine dose, airway resistance and lung compliance in the animal were measured. Airway resistance, which is measured at points of equal lung volume during the breathing cycle, provides a measure of the resistance to gas flow through the large air passages of the lung. Lung compliance, which is measured at zero flow points in the breathing cycle, reflects the pressure changes required to effect the lung volume change over the breathing cycle. The resistance and compliance values determined at the beginning of the test serve as baseline values for determining the percentage changes in resistance and compliance, in response to histamine-induced bronchoconstriction.
Each time point was calculated as the difference in airway resistance shortly after histamine administration and at the beginning of the test (baseline value) divided by the baseline value. […]

Take `CC(C)NCC(O)c1cc(O)cc(O)c1` (stereo not drawn) [MPS, metaproteranol sulfate]: in data set [1], the “protection against bronchoconstriction at the recommended dose” value (shortened to “protection … at the recommended dose”) is “necessary to double the recommended dose in order to achieve effective protection” and the “therapeutic dose per animal” value came out at 39 µg. Besides, the Cmax in data set [2] (free drug within 15 minutes, read-out: blood plasma MPS level, high) is around 80 ng/mL. The concentration at 2 h in data set [2] (over a two-hour period, read-out: blood plasma MPS level at end of test period) is around 20 ng/mL. Besides, the plasma level course entry in data set [3] is reported as “rapid drop in plasma levels”. In data set [4], the “increase in heart rate” value is reported as “relatively high initial heart rate increase, with a slow decline over the test period”. Besides, the “percent protection against bronchoconstriction” value in the data set with bronchoconstriction was “about the same for both free drug and liposomal-entrapped drug”. The “percent protection from ACH-induced bronchoconstriction” value in data set [5] was “substantially the same degree of protection against ACH-induced bronchoconstriction”.

With `CCCCCCCCCCCCCCCC(=O)OC[C@H](COP(=O)([O-])OCC[N+](C)(C)C)OC(=O)CCCCCCCCCCCCCCC` [DPPC, dipalmitoyl phosphatidyl choline], the “Tc (transition temperature)” value in data set [6] is 41 C.°.

Turning to `CC(C)(C)NCC(O)c1cc(O)cc(O)c1` (stereo not drawn) [terbutaline sulfate], in data set [1], the “protection … at the recommended dose” value is “necessary to double the recommended dose in order to achieve effective protection” and the “therapeutic dose per animal” value worked out at 15 µg. The “increase in airway resistance, end of test period” value in data set [7] (115 minutes (FIG. 5A)) was “over 160%”. In data set [7] (first histamine challenge (FIG. 5A)), the “increase in airway resistance, initial” value amounted to 60%.

Turning to `CCCCCCCCCCCCCC(=O)OC[C@H](COP(=O)([O-])OCC[N+](C)(C)C)OC(=O)CCCCCCCCCCCCC` [DMPC, dimyristoyl phosphatidyl choline], the “Tc (transition temperature)” value in data set [6] was 23 C.°.

Consider `CCCCCCCC/C=C\CCCCCCCC(=O)OCC(COP(=O)([O-])OCC[N+](C)(C)C)OC(=O)CCCCCCC/C=C\CCCCCCCC` (stereo not drawn) [DOPC, dioleoyl phosphatidyl choline], for which, in data set [6], the “Tc (transition temperature)” value is -22 C.°.

On to `CC(C)(C)NCC(O)c1ccc(O)c(CO)c1` (stereo not drawn) [salbutamol sulfate], for which, in data set [1], the “protection … at the recommended dose” value was “good protection against bronchoconstriction” and the “therapeutic dose per animal” value came to 1.5 µg.

Take `CCCCCCCCCCCCCCCCCC(=O)OCC(COP(=O)([O-])OCC[N+](C)(C)C)OC(=O)CCCCCCCCCCCCCCCCC` (stereo not drawn) [DSPC, distearoyl phosphatidyl choline]: in data set [6], the “Tc (transition temperature)” value is recorded as 55 C.°.
